Reference: US10246442B2, “4-Aminoquinazolin compounds as prolyl hydroxylase inhibitors” (JANSSEN PHARMACEUTICA NV, priority 2011, dated 2019)

Tests used:
[1] = tested on: Erythropoietin secretion, Hep-3B cells; experiment: Cellular assay: EPO secretion in Hep-3B cells; format: cell-based; details: Homo sapiens, Hep3B, 100 μM compound, 24 hours, percent of EPO secretion relative to assay control compound 7-[(4-Chloro-phenyl)-(5-methyl-isoxazol-3-ylamino)-methyl]-quinolin-8-ol, read-out: Cellular % EPO Stimulation
Protocol: Hep-3B cells (ATCC, Manassas, Va.) were plated in 96-well plates at 20,000 cells per well in 100 μl of DMEM containing 10% fetal bovine serum, 1% non-essential amino acids, 50 IU/mL of penicillin and 50 μg/mL of streptomycin (all cell culture reagents from Invitrogen, Carlsbad, Calif.). Twenty-four hours after plating, compounds were added and incubated for an additional 24 hours. All compounds were tested with final compound concentrations at 100 μM. Fifty microliters of the supernatant was then transferred to a human Hypoxia assay kit (Meso-Scale Discovery, Gaithersburg, Md.). Erythropoietin in the supernatant was detected according to the manufacturer's instructions as follows. EPO detection plates were blocked with 3% BSA in PBS overnight and 50 μl of the supernatant was incubated at room temperature in an orbital shaker for 2 h. Twenty-five microliters of 0.5 μg/ml anti-EPO detection antibody was added for 2 hours at room temperature in an orbital shaker. After 3 washes in PBS, 150 μl of 1× read buffer is added and the plate is then read on the MSD SECTOR instrument. Data was analyzed by determining the percent of EPO secretion in the presence of 100 μM compound relative to an assay control compound, 7-[(4-Chloro-phenyl)-(5-methyl-isoxazol-3-ylamino)-methyl]-quinolin-8-ol.

PHD2181-417 = PHD2181-417 (Homo sapiens (Human), UniProt Q9GZT9); experiment: PHD enzymatic assay ([14C]-succinic acid production); format: biochemical; details: purified PHD2181-417, HIF-1α peptide substrate, 30 min pre-incubation; average of results
Protocol: Expression and Purification of PHD2181-417
The human PHD2 expression construct containing amino acids 181-417 of GenBank Accession ID NM_022051 was cloned into a pBAD vector (Invitrogen), incorporating both an N-terminal histidine tag and a Smt3-tag, both of which are cleaved by Ulp1. Protein production was achieved by expression in BL21 cells grown in Terrific Broth containing 100 μg/ml ampicillin. Cell cultures were inoculated at 37° C. and grown to an OD600 of 0.8. Cultures were induced with 0.1% arabinose and grown overnight at 20° C. with continuous shaking at 225 rpm. Cells were then harvested by centrifugation and stored at −80° C. Cell pellets were suspended in Buffer A (50 mM Tris-HCl pH 7.2, 100 mM NaCl, 100 mM L-arginine, 1 mM TCEP, 0.05% (w/v) NP-40, 50 mM imidazole) followed by the addition of lysozyme and benzonase. Cells were lysed by sonication and the lysate was cleared by centrifugation (15,000 rpm, 90 min, 4° C.). The protein was purified by nickel affinity chromatography using a HisTrap Crude FF column (GE Healthcare). Samples were eluted in Buffer A with a 50-200 mM imidazole gradient. Cleavage of the Smt tag with Ulp1 protease was achieved via overnight incubation with dialyzing against Buffer A. The PHD2181-417 sample was then passed over a second HisTrap Crude FF column (GE Healthcare) to remove uncleaved protein. The flow-through was then dialyzed into 50 mM MES pH 6.0, 1 mM TCEP, 5 mM NaCl for ion exchange chromatography on a HiTrap SP Cation Exchange column (GE Healthcare). The PHD2181-417 protein was eluted with a 0-0.2 M NaCl gradient. Fractions were pooled for further purification by size exclusion chromatography over a Superdex 75 Size Exclusion Column (GE Healthcare). Final protein was concentrated to 4 mg/ml and dialyzed in 10 mM PIPES pH 7.0, 100 mM NaCl, 0.5 mM TCEP.
(10 μM, California Peptide Research Inc., Napa, Calif.), and [5-^14C]-2-oxoglutaric acid (50 mCi/mmol, Moravek Chemicals, Brea, Calif.) in reaction buffer (40 mM Tris-HCl, pH 7.5, 0.4 mg/ml catalase, 0.5 mM DTT, 1 mM ascorbate) for 10 minutes. Compounds were pre-incubated for 30 min before starting the reaction (all test compounds were dissolved at 10 mM in 100% DMSO (w/v) and were tested with final compound concentrations at 100 μM in 1% DMSO (w/v)). The reaction was stopped by addition of 50 μl of 70 mM H3PO4 and 50 μl of 500 mM NaH2PO4, pH 3.2. Detection of [^14C]-succinic acid was achieved by separating from [5-^14C]-2-oxoglutaric acid by incubating the reaction mixture with 100 μl of 0.16 M DNP prepared in 30% perchloric acid. Next, 50 μl of unlabeled 20 mM 2-oxoglutaric acid/20 mM succinic acid, serving as carrier for the radioactivity, was added to the mixture, and was allowed to proceed for 30 minutes at room temperature. The reaction was then incubated with 50 μl of 1 M 2-oxoglutaric acid for 30 additional minutes at room temperature to precipitate the excess DNP. The reaction was then centrifuged at 2800×g for 10 minutes at room temperature to separate [^14C]-succinic acid in the supernatant from the precipitated [^14C]-dinitrophenylhydrazone. Fractions of the supernatant (400 μI) were counted using a beta counter (Beckman Coulter, Fullerton, Calif.). Inhibition of PHD2181-417 activity was measured as a decrease in succinic acid production. The IC50 values were estimated by fitting the data to a three-parameter logistic function using GraphPad Prism, version 4.02 (Graph Pad Software, San Diego, Calif.).

Chain of PHD2181-417 (Q9GZT9 181-417): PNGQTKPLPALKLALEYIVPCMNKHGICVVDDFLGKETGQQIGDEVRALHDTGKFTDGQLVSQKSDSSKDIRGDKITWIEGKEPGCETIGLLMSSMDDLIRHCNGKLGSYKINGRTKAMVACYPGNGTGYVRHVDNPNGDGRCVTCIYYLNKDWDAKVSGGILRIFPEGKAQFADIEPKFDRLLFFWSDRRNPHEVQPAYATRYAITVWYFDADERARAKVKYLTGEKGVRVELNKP

| Enzyme pIC50 (PHD2181-417) | SMILES | activation at 100 µM [1] [%] |
| --- | --- | --- |
| 7.1 | CNc1nc(-n2cc(C(=O)O)cn2)nc2ccc(C3CCCCC3)cc12 [Example 22, 1-(6-Cyclohexyl-4-methylamino-quinazolin-2-yl)-1H-pyrazole-4-carboxylic acid] | 48 |
| 7.5 | Nc1nc(-n2cc(C(=O)O)cn2)nc2ccc(C3CCCCC3)cc12 [Example 24, 1-(4-Amino-6-cyclohexylquinazolin-2-yl)-1H-pyrazole-4-carboxylic acid] | 36 |
| 6.4 | O=C(O)c1cnn(-c2nc(N3CCCC3)c3cc(C4CCCCC4)ccc3n2)c1 [Example 25, 1-(6-Cyclohexyl-4-(pyrrolidin-1-yl)quinazolin-2-yl)-1H-pyrazole-4-carboxylic acid] | 39 |
| 7.1 | O=C(O)c1cnn(-c2nc(N3CCCCC3)c3cc(C4CCCCC4)ccc3n2)c1 [Example 26, 1-(6-Cyclohexyl-4-(piperidin-1-yl)quinazolin-2-yl)-1H-pyrazole-4-carboxylic acid] | 20 |
| 6.8 | O=C(O)c1cnn(-c2nc(N3CCOCC3)c3cc(C4CCCCC4)ccc3n2)c1 [Example 33, 1-(6-Cyclohexyl-4-morpholinoquinazolin-2-yl)-1H-pyrazole-4-carboxylic acid] | 36 |
| 6.9 | O=C(O)c1cnn(-c2nc(N3CCSCC3)c3cc(C4CCCCC4)ccc3n2)c1 [Example 34, 1-(6-Cyclohexyl-4-thiomorpholinoquinazolin-2-yl)-1H-pyrazole-4-carboxylic acid] | 20 |
| 7.1 | O=C(O)c1cnn(-c2nc(N3CCCCCC3)c3cc(C4CCCCC4)ccc3n2)c1 [Example 37, 1-(4-(Azepan-1-yl)-6-cyclohexylquinazolin-2-yl)-1H-pyrazole-4-carboxylic acid] | 17 |

More lines, now with the values behind:

| SMILES | Enzyme pIC50 (PHD2181-417) | activation at 100 µM [1] [%] |
| --- | --- | --- |
| CCCCN(CCCC)c1nc(-n2cc(C(=O)O)cn2)nc2cc(F)c(Oc3c(C)cccc3C)cc12 [Example 11, 1-[6-(2,6-Dimethyl-phenoxy)-4-dibutylamino-7-fluoro-quinazolin-2-yl]-1H-pyrazole-4-carboxylic acid] | 7.1 | 9 |
| CCCN(CCC)c1nc(-n2cc(C(=O)O)cn2)nc2cc(F)c(Oc3c(C)cccc3C)cc12 [Example 12, 1-[6-(2,6-Dimethyl-phenoxy)-4-dipropylamino-7-fluoro-quinazolin-2-yl]-1H-pyrazole-4-carboxylic acid] | 7.4 | 9 |
| Cc1cccc(C)c1Oc1cc2c(NCC3CCCCC3)nc(-n3cc(C(=O)O)cn3)nc2cc1F [Example 13, 1-(4-((Cyclohexylmethyl)amino)-6-(2,6-dimethylphenoxy)-7-fluoroquinazolin-2-yl)-1H-pyrazole-4-carboxylic acid] | 6.9 | 10 |
| Cc1cccc(C)c1Oc1cc2c(NC3CC3)nc(-n3cc(C(=O)O)cn3)nc2cc1F [Example 14, 1-((4-Cyclopropylamino)-6-(2,6-dimethylphenoxy)-7-fluoroquinazolin-2-yl)-1H-pyrazole-4-carboxylic acid] | 7.1 | 86 |
| Cc1cccc(C)c1Oc1cc2c(NC3CCOCC3)nc(-n3cc(C(=O)O)cn3)nc2cc1F [Example 16, 1-(6-(2,6-Dimethylphenoxy)-7-fluoro-4-((tetrahydro-2H-pyran-4-yl)amino)quinazolin-2-yl)-1H-pyrazole-4-carboxylic acid] | 7.1 | 71 |
| Cc1cccc(C)c1Oc1cc2c(N3CCOCC3)nc(-n3cc(C(=O)O)cn3)nc2cc1F [Example 20, 1-(6-(2,6-Dimethylphenoxy)-7-fluoro-4-morpholinoquinazolin-2-yl)-1H-pyrazole-4-carboxylic acid] | 7.0 | 54 |
| CCN(CC)c1nc(-n2cc(C(=O)O)cn2)nc2ccc(C3CCCCC3)cc12 [Example 27, 1-(6-Cyclohexyl-4-(diethylamino)quinazolin-2-yl)-1H-pyrazole-4-carboxylic acid] | 7.3 | 45 |
| O=C(O)c1cnn(-c2nc(Nc3ccccc3)c3cc(C4CCCCC4)ccc3n2)c1 [Example 28, 1-(6-Cyclohexyl-4-(phenylamino)quinazolin-2-yl)-1H-pyrazole-4-carboxylic acid] | 7.3 | 31 |
| O=C(O)c1cnn(-c2nc(NC3CC3)c3cc(C4CCCCC4)ccc3n2)c1 [Example 32, 1-(6-Cyclohexyl-4-(cyclopropylamino)quinazolin-2-yl)-1H-pyrazole-4-carboxylic acid] | 6.7 | 49 |
| N#CNc1nc(-n2cc(C(=O)O)cn2)nc2ccc(C3CCCCC3)cc12 [Example 35, 1-(4-Cyanamido-6-cyclohexylquinazolin-2-yl)-1H-pyrazole-4-carboxylic acid] | 7.2 | 67 |
| CN(C)c1nc(-n2cc(C(=O)O)cn2)nc2ccc(C3CCCCC3)cc12 [Example 38, 1-(6-Cyclohexyl-4-(dimethylamino)quinazolin-2-yl)-1H-pyrazole-4-carboxylic acid] | 7.2 | 61 |
| CN(C)c1nc(-n2cc(C(=O)O)cn2)nc2ccc(-c3ccccc3)cc12 [Example 41, 1-(4-(Dimethylamino)-6-phenylquinazolin-2-yl)-1H-pyrazole-4-carboxylic acid] | 7.2 | 43 |
| CCN(C)c1nc(-n2cc(C(=O)O)cn2)nc2ccc(-c3ccccc3)cc12 [Example 42, 1-(4-(Ethyl(methyl)amino)-6-phenylquinazolin-2-yl)-1H-pyrazole-4-carboxylic acid] | 7.3 | 56 |
| O=C(O)c1cnn(-c2nc(N3CCCCC3)c3cc(-c4ccccc4)ccc3n2)c1 [Example 45, 1-(6-Phenyl-4-(piperidin-1-yl)quinazolin-2-yl)-1H-pyrazole-4-carboxylic acid] | 7.2 | 8 |
| CCN(CC)c1nc(-n2cc(C(=O)O)cn2)nc2ccc(-c3ccccc3)cc12 [Example 46, 1-(4-(Diethylamino)-6-phenylquinazolin-2-yl)-1H-pyrazole-4-carboxylic acid] | 7.4 | 26 |
| O=C(O)c1cnn(-c2nc(N3CCSCC3)c3cc(-c4ccccc4)ccc3n2)c1 [Example 54, 1-(6-Phenyl-4-thiomorpholinoquinazolin-2-yl)-1H-pyrazole-4-carboxylic acid] | 6.8 | 25 |
